Columns and labels:
[1] = target: T1, HDAC1 (Homo sapiens, UniProt Q13547); test: HDAC enzyme activity inhibition (in vitro), HDAC1 Fluorimetric Drug Discovery Assay Kit; format: biochemical; conditions: samples at 100, 1000 and 10000 nM; 37° C. 60 minutes; fluorescence Ex 390, Em 460; read-out: HDAC1 IC50
T1 construct: purchased Enzolifesciences BML-AK511
Procedure, shortened: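 Compound incubated with enzyme 60 min at 37° C, then developer 30 min at 37° C; fluorescence read at Ex 390/Em 460. HDAC1 via fluorimetric kit, compounds at 100, 1000 and 10000 nM; HDAC6 human recombinant, compounds at 0.1, 1, 10, 100 and 1000 nM.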

[2] = target: T2, HDAC6 human recombinant (Homo sapiens, UniProt Q9UBN7); test: HDAC enzyme activity inhibition (in vitro), HDAC6 assay; format: biochemical; conditions: samples at 0.1, 1, 10, 100 and 1000 nM; 37° C. 60 minutes; fluorescence Ex 390, Em 460; read-out: HDAC6 IC50
T2 construct: purchased Calbiochem 382180
T2 sequence (Q9UBN7 1-1215): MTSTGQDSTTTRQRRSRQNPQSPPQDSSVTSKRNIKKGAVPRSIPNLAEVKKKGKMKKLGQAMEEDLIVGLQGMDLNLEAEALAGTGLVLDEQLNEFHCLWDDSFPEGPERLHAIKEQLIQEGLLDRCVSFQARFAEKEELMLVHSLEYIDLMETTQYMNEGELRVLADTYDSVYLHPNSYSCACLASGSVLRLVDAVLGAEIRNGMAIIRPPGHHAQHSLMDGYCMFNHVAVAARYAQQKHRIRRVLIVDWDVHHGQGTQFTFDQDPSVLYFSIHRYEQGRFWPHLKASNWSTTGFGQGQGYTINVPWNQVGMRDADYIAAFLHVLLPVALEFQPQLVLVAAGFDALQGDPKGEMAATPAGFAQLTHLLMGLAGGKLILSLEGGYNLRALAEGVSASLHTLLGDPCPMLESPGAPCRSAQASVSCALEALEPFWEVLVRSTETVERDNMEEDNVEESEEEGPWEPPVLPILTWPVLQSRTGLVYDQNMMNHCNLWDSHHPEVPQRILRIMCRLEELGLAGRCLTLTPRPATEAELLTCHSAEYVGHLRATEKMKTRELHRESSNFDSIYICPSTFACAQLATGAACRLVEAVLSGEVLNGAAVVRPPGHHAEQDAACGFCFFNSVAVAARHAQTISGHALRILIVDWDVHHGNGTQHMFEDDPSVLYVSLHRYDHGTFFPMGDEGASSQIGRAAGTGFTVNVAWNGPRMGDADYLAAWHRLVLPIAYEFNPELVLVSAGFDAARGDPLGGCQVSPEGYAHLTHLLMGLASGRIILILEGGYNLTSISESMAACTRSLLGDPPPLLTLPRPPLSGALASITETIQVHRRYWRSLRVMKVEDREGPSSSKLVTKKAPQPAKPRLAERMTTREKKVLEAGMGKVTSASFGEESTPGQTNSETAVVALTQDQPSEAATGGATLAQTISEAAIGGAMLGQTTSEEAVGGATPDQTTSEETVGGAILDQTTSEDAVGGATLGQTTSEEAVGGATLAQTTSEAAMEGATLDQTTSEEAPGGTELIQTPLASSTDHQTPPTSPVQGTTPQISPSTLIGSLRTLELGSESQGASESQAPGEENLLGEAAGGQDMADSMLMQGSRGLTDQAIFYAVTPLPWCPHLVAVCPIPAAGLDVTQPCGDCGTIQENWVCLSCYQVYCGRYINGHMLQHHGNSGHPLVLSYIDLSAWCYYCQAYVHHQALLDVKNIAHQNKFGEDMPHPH
Procedure, shortened: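 HDAC6 human recombinant enzyme with fluorimetric substrate; […]. Reaction 60 min at 37° C, then developer 30 min at 37° C; fluorescence read at Ex 390/Em 460.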

T1 sequence (Q13547 whole entry): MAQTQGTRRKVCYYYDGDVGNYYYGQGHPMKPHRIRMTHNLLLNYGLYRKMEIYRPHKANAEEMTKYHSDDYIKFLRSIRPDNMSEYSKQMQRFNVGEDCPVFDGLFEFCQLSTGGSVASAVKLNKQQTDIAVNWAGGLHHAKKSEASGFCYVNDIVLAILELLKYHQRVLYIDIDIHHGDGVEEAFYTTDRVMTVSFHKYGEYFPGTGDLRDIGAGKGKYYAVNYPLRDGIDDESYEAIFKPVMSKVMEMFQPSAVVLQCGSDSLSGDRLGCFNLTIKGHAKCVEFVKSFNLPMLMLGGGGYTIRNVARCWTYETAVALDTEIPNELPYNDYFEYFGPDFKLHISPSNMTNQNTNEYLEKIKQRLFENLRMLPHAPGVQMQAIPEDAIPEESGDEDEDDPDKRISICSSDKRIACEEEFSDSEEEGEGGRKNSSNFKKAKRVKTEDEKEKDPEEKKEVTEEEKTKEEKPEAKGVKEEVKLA

SMILES	IC50 [1] [nM]	IC50 [2] [nM]
Cn1c(=O)n(Cc2ccc(-c3nnc(C(F)F)o3)cn2)c2cc(F)c(N3CCN(Cc4cccc5[nH]ccc45)CC3)cc21 [Compound 284, 5-(4-((1H-indole-4-yl)methyl)piperazine-1-yl)-1-((5-(5-(difluoromethyl)-1,3,4-oxadiazole-2-yl)pyridine-2-yl)methyl)-6-fluoro-3-methyl-1,3-dihydro-2H-benzo[d]imidazole-2-one]	> 10000	59
O=c1n(Cc2ccc(-c3nnc(C(F)F)o3)cc2)c2ncccc2n1C1CCN(C2COC2)CC1 [Compound 106, 3-(4-(5-(difluoromethyl)-1,3,4-oxadiazole-2-yl)benzyl)-1-(1-(oxetan-3-yl)piperidine-4-yl)-1,3-dihydro-2H-imidazo[4,5-b]pyridine-2-one]	> 10000	391
COCCN1Cc2ccccc2N(Cc2ccc(-c3nnc(C(F)F)o3)cn2)C1=O [Compound 31, 1-((5-(5-(difluoromethyl)-1,3,4-oxadiazole-2-yl)pyridine-2-yl)methyl)-3-(2-methoxyethyl)-3,4-dihydroquinazoline-2(1H)-one]	> 10000	108
CCN1CCC[C@H](n2c(=O)n(Cc3ccc(-c4nnc(C(F)F)o4)cn3)c3cc(F)c(-c4ccncc4)cc32)C1 [Compound 300, (S)-1-((5-(5-(difluoromethyl)-1,3,4-oxadiazole-2-yl)pyridine-2-yl)methyl)-3-(1-ethylpiperidine-3-yl)-6-fluoro-5-(pyridine-4-yl)-1,3-dihydro-2H-benzo[d]imidazole-2-one]	> 10000	13
O=c1oc2cc(Cl)c(-c3cccnc3)cc2n1Cc1ccc(-c2nnc(C(F)F)o2)cn1 [Compound 229, 6-chloro-3-((5-(5-(difluoromethyl)-1,3,4-oxadiazole-2-yl)pyridine-2-yl)methyl)-5-(pyridine-3-yl)benzo[d]oxazole-2(3H)-one]	> 10000	312
Cc1noc(C)c1-c1cc2c(cc1F)n(Cc1ccc(-c3nnc(C(F)F)o3)cn1)c(=O)n2C [Compound 178, 1-((5-(5-(difluoromethyl)-1,3,4-oxadiazole-2-yl)pyridine-2-yl)methyl)-5-(3,5-dimethylisoxazole-4-yl)-6-fluoro-3-methyl-1,3-dihydro-2H-benzo[d]imidazole-2-one]	> 10000	20
CN1CCC(n2c(=O)n(Cc3ccc(-c4nnc(C(F)F)o4)cc3F)c3cc(F)c(-c4ccncc4)cc32)CC1 [Compound 118, 1-(4-(5-(difluoromethyl)-1,3,4-oxadiazole-2-yl)-2-fluorobenzyl)-6-fluoro-3-(1-methylpiperidine-4-yl)-5-(pyridine-4-yl)-1,3-dihydro-2H-benzo[d]imidazole-2-one]	> 10000	42
O=c1n(Cc2ccc(-c3nnc(C(F)F)o3)cn2)c2ccccc2n1C1CCS(=O)(=O)CC1 [Compound 13, 1-((5-(5-(difluoromethyl)-1,3,4-oxadiazole-2-yl)pyridine-2-yl)methyl)-3-(1,1-dioxydotetrahydro-2H-thiopyran-4-yl)-1,3-dihydro-2H-benzo[d]imidazole-2-one]	> 10000	161
O=C(CO)N1CCC(n2c(=O)n(Cc3ccc(-c4nnc(C(F)F)o4)cn3)c3cc(Cl)ccc32)CC1 [Compound 243, 5-chloro-3-((5-(5-(difluoromethyl)-1,3,4-oxadiazole-2-yl)pyridine-2-yl)methyl)-1-(1-(2-hydroxyacetyl)piperidine-4-yl)-1,3-dihydro-2H-benzo[d]imidazole-2-one]	> 10000	17
O=c1n(Cc2ccc(-c3nnc(C(F)F)o3)cn2)c2cc(F)c(-c3cccnc3)cc2n1C1CCN(CC(F)(F)C(F)F)CC1 [Compound 242, 1-((5-(5-(difluoromethyl)-1,3,4-oxadiazole-2-yl)pyridine-2-yl)methyl)-6-fluoro-5-(pyridine-3-yl)-3-(1-(2,2,3,3-tetrafluoropropyl)piperidine-4-yl)-1,3-dihydro-2H-benzo[d]imidazole-2-one]	> 10000	46
Cn1c(=O)n(Cc2ccc(-c3nnc(C(F)F)o3)cc2F)c2cc(-c3ccncc3)ccc21 [Compound 111, 3-(4-(5-(difluoromethyl)-1,3,4-oxadiazole-2-yl)-2-fluorobenzyl)-1-methyl-5-(pyridine-4-yl)-1,3-dihydro-2H-benzo[d]imidazole-2-one]	> 10000	322
O=c1oc2cc(-c3cnc(N4CCN(C5COC5)CC4)nc3)c(F)cc2n1Cc1ccc(-c2nnc(C(F)F)o2)cn1 [Compound 339, 3-((5-(5-(difluoromethyl)-1,3,4-oxadiazole-2-yl)pyridine-2-yl)methyl)-5-fluoro-6-(2-(4-(oxetan-3-yl)piperazine-1-yl)pyrimidine-5-yl)benzo[d]oxazole-2(3H)-one]	> 10000	52
CN1CCC(n2cc(-c3ccc4c(c3)sc(=O)n4Cc3ccc(-c4nnc(C(F)F)o4)cn3)cn2)CC1 [Compound 353, 3-((5-(5-(difluoromethyl)-1,3,4-oxadiazole-2-yl)pyridine-2-yl)methyl)-6-(1-(1-methylpiperidine-4-yl)-1H-pyrazole-4-yl)benzo[d]thiazole-2(3H)-one]	> 10000	19

The remaining lines, values ahead:

IC50 [1] [nM]	IC50 [2] [nM]	SMILES
> 10000	20	CN1CCC(n2c(=O)n(Cc3ccc(-c4nnc(C(F)F)o4)cn3)c3ccc(-c4cccc(F)c4)cc32)CC1 [Compound 133, 1-((5-(5-(difluoromethyl)-1,3,4-oxadiazole-2-yl)pyridine-2-yl)methyl)-5-(3-fluorophenyl)-3-(1-methylpiperidine-4-yl)-1,3-dihydro-2H-benzo[d]imidazole-2-one]
> 10000	> 3000	CN1CCC(n2c(=O)n(Cc3ccc(-c4nnc(C(F)F)o4)cc3)c3cc(-c4ccc(C(F)(F)F)cc4)ccc32)CC1 [Compound 129]
> 10000	12	CN1CCC(n2c(=O)n(Cc3ccc(-c4nnc(C(F)F)o4)cn3)c3cc(Br)ccc32)CC1 [Compound 141, 5-bromo-3-((5-(5-(difluoromethyl)-1,3,4-oxadiazole-2-yl)pyridine-2-yl)methyl)-1-(1-methylpiperidine-4-yl)-1,3-dihydro-2H-benzo[d]imidazole-2-one]
> 10000	79	CS(=O)(=O)N1CCC(n2c(=O)n(Cc3ccc(-c4nnc(C(F)F)o4)cc3)c3cc(F)ccc32)CC1 [Compound 192, 3-(4-(5-(difluoromethyl)-1,3,4-oxadiazole-2-yl)benzyl)-5-fluoro-1-(1-(methylsulfonyl)piperidine-4-yl)-1,3-dihydro-2H-benzo[d]imidazole-2-one]
> 10000	12	CN1CCC(n2c(=O)n(Cc3ccc(-c4nnc(C(F)F)o4)cn3)c3ccc(-c4cccnc4)cc32)CC1 [Compound 136, 1-((5-(5-(difluoromethyl)-1,3,4-oxadiazole-2-yl)pyridine-2-yl)methyl)-3-(1-methylpiperidine-4-yl)-5-(pyridine-3-yl)-1,3-dihydro-2H-benzo[d]imidazole-2-one]
> 10000	77	CN1CCC(n2c(=O)n(Cc3ccc(-c4nnc(C(F)F)o4)cc3F)c3cc(F)c(-c4ccoc4)cc32)CC1 [Compound 115, 1-(4-(5-(difluoromethyl)-1,3,4-oxadiazole-2-yl)-2-fluorobenzyl)-6-fluoro-5-(furan-3-yl)-3-(1-methylpiperidine-4-yl)-1,3-dihydro-2H-benzo[d]imidazole-2-one]
> 10000	288	Cc1ccc(-c2ccc3c(c2)n(Cc2ccc(-c4nnc(C(F)F)o4)cc2)c(=O)n3C2CCN(C)CC2)o1 [Compound 130]
